Laboratory results: ChEMBL document CHEMBL6153020, “Identification of Isoliensinine as a Ferroptosis Suppressor with Iron-Chelating Activity” (J Nat Prod, 2025)
Activity calls are given as the source filed them. The calls are words filed in the database; no cut-off is given here.

Legend:
HT-1080 [1] = assay: Anti-ferroptosis activity against IKE-induced ferroptosis in human HT-1080 cells assessed as inhibition of lipid peroxidation level at 5 uM by BODIPY 581/591 C11 dye based flow cytometry analysis; assay type: functional, cell-based
HT-1080 [2] = assay: Anti-ferroptosis activity against FINO2-induced ferroptosis in human HT-1080 cells assessed as decrease in cell death at 5 uM incubated for 24 hrs by SYTOX Green staining based light microscopy analysis; assay type: functional
HT-1080 [3] = assay: Anti-ferroptosis activity against RSL3-induced ferroptosis in human HT-1080 cells assessed as reduction in MDA level; assay type: functional, cell-based
HT-1080 [4] = assay: Anti-ferroptosis activity against FeCl3/8HQ-induced ferroptosis in human HT-1080 cells assessed as increase in cell viability at 1 to 50 uM incubated for 24 hrs by cell counting kit 8 method; assay type: functional, cell-based; conditions: dose 1-50 µM
HT-1080 [5] = assay: Anti-ferroptosis activity against RSL3-induced ferroptosis in human HT-1080 cells assessed as protection against cell death at 10 uM incubated for 24 hrs by SYTOX Green staining based light microscopy analysis; assay type: functional
HT-1080 [6] = assay: Anti-ferroptosis activity against RSL3-induced ferroptosis in human HT-1080 cells assessed as increase in cell viability at 10 uM incubated overnight in the presence of ML385 by cell counting kit 8 method; assay type: functional, cell-based
HT-1080 [7] = assay: Anti-ferroptosis activity against IKE-induced ferroptosis in human HT-1080 cells assessed as increase in cell viability at 1 to 50 uM incubated for 24 hrs by cell counting kit 8 method; assay type: functional, cell-based; conditions: dose 1-50 µM
[8] = Antioxidant activity assessed as ABTS radical scavenging activity at 5 uM by ABTS method; assay type: functional
HT-1080 [9] = assay: Anti-ferroptosis activity against IKE-induced ferroptosis in human HT-1080 cells assessed as effect on GSH/GSSG ratio at 5 uM; assay type: functional, cell-based
HT-1080 [10] = assay: Anti-ferroptosis activity against RSL3-induced ferroptosis in human HT-1080 cells assessed as increase in cell viability at 10 uM incubated for 24 hrs by CCK-8 assay; assay type: functional, cell-based
HT-1080 [11] = assay: Anti-ferroptosis activity against IKE-induced ferroptosis in human HT-1080 cells assessed as effect on GSH level at 5 uM; assay type: functional, cell-based
HT-1080 [12] = assay: Anti-ferroptosis activity against RSL3-induced ferroptosis in human HT-1080 cells assessed as reduction in GPX4 level at 5 uM by Western blot analysis; assay type: functional, cell-based
HT-1080 [13] = assay: Anti-ferroptosis activity against RSL3-induced ferroptosis in human HT-1080 cells assessed as upregulation of PTGS2 mRNA expression by qPCR analysis; assay type: functional, cell-based
HT-1080 [14] = assay: Anti-ferroptosis activity against RSL3-induced ferroptosis in human HT-1080 cells assessed as increase in cell viability at 50 uM incubated for 24 hrs by cell counting kit 8 method; assay type: functional, cell-based
HT-1080 [15] = assay: Anti-ferroptosis activity against IKE-induced ferroptosis in human HT-1080 cells assessed as increase in cell viability at 10 uM incubated for 24 hrs by SYTOX Green staining based light microscopy analysis; assay type: functional
HT-1080 [16] = assay: Anti-ferroptosis activity against RSL3-induced ferroptosis in human HT-1080 cells assessed as restoration of lipid peroxidation level by BODIPY 581/591 C11 dye based flow cytometry analysis; assay type: functional, cell-based
HT-1080 [17] = assay: Anti-ferroptosis activity against RSL3-induced ferroptosis in human HT-1080 cells assessed as reduction in ROS level by DCFH-DA dye based analysis; assay type: functional, cell-based
HT-1080 [18] = assay: Anti-ferroptosis activity against FINO2-induced ferroptosis in human HT-1080 cells assessed as increase in cell viability at 1 to 50 uM incubated for 24 hrs by cell counting kit 8 method; assay type: functional, cell-based; conditions: dose 1-50 µM
HT-1080 [19] = assay: Anti-ferroptosis activity against RSL3-induced ferroptosis in human HT-1080 cells assessed as increase in cell viability at 5 uM incubated for 24 hrs by cell counting kit 8 method; assay type: functional, cell-based
HT-1080 [20] = assay: Anti-ferroptosis activity against FINO2-induced ferroptosis in human HT-1080 cells assessed as increase in cell viability at 20 uM incubated overnight by cell counting kit 8 method; assay type: functional, cell-based
[21] = Toxicity in C57BL/6 mouse assessed as change in LDH level in serum at 10 mg/kg, ip pretreated with iron sulfate for 8 hrs followed by compound administered for 30 min by automatic biochemical analyzer; assay type: organism-based; conditions: in vivo, 30 h
HT-1080 [22] = assay: Anti-ferroptosis activity against FeSO4/8HQ-induced ferroptosis in human HT-1080 cells assessed as increase in cell viability at 1 to 10 uM incubated for 24 hrs by cell counting kit 8 method; assay type: functional, cell-based; conditions: dose 1-10 µM
HT-1080 [23] = assay: Anti-ferroptosis activity against FeSO4/8HQ-induced ferroptosis in human HT-1080 cells assessed as reduction in total iron level at 5 uM by live-cell fluorescent imaging; assay type: functional, cell-based
Mus musculus [24] = assay: Protection against acute iron overload in male C57BL/6 mouse model assessed as reduction in hepatic FTH level at 10 mg/kg, ip pretreated with iron sulfate for 8 hrs followed by compound administered for 30 min by Western blot analysis; assay type: functional, organism-based
HT-1080 [25] = assay: Anti-ferroptosis activity against MnCl2-induced ferroptosis in human HT-1080 cells assessed as increase in cell viability at 5 uM incubated for 24 hrs by cell counting kit 8 method; assay type: functional, cell-based
HT-1080 [26] = assay: Anti-ferroptosis activity against FeCl3/8HQ-induced ferroptosis in human HT-1080 cells assessed as reduction in MDA level at 5 uM; assay type: functional, cell-based
HT-1080 [27] = assay: Anti-ferroptosis activity against FeCl3/8HQ-induced ferroptosis in human HT-1080 cells assessed as reduction in total iron level at 5 uM by live-cell fluorescent imaging; assay type: functional, cell-based
HT-1080 [28] = assay: Anti-ferroptosis activity against FINO2-induced ferroptosis in human HT-1080 cells assessed as reduction in total iron level at 5 uM by live-cell fluorescent imaging; assay type: functional, cell-based
HT-1080 [29] = assay: Anti-ferroptosis activity against FeSO4/8HQ-induced ferroptosis in human HT-1080 cells assessed as reduction in MDA level at 5 uM; assay type: functional, cell-based
HT-1080 [30] = assay: Anti-ferroptosis activity against FINO2-induced ferroptosis in human HT-1080 cells assessed as upregulation of PTGS2 mRNA level at 5 uM by qPCR analysis; assay type: functional, cell-based
[31] = Toxicity in C57BL/6 mouse assessed as change in ALT level in serum at 10 mg/kg, ip pretreated with iron sulfate for 8 hrs followed by compound administered for 30 min by automatic biochemical analyzer; assay type: organism-based; conditions: in vivo, 30 h
Mus musculus [32] = assay: Protection against acute iron overload in male C57BL/6 mouse model assessed as reduction in hepatic FTL level at 10 mg/kg, ip pretreated with iron sulfate for 8 hrs followed by compound administered for 30 min by Western blot analysis; assay type: functional, organism-based
HT-1080 [33] = assay: Anti-ferroptosis activity against FINO2-induced ferroptosis in human HT-1080 cells assessed as reduction in MDA level at 5 uM; assay type: functional, cell-based
HT-1080 [34] = assay: Anti-ferroptosis activity against ZnCl2-induced ferroptosis in human HT-1080 cells assessed as increase in cell viability at 5 uM incubated for 24 hrs by cell counting kit 8 method; assay type: functional, cell-based
HT-1080 [35] = assay: Anti-ferroptosis activity against FeSO4/8HQ-induced ferroptosis in human HT-1080 cells assessed as reduction in Fe2+ level at 5 uM by FerroOrange staining based live-cell fluorescent imaging; assay type: functional
HT-1080 [36] = assay: Anti-ferroptosis activity against FeCl3/8HQ-induced ferroptosis in human HT-1080 cells assessed as increase in cell viability at 5 uM incubated for 24 hrs by cell counting kit 8 method; assay type: functional, cell-based
Mus musculus [37] = assay: Protection against male acute iron overload C57BL/6 mouse model assessed as reduction in hepatic iron content at 10 mg/kg, ip pretreated with iron sulfate for 8 hrs followed by compound administered for 30 min; assay type: functional, organism-based
HT-1080 [38] = assay: Anti-ferroptosis activity against FINO2-induced ferroptosis in human HT-1080 cells assessed as reduction in Fe2+ oxidation level at 5 uM by colorimetric method; assay type: functional, cell-based
[39] = Toxicity in C57BL/6 mouse assessed as change in CK level in serum at 10 mg/kg, ip pretreated with iron sulfate for 8 hrs followed by compound administered for 30 min by automatic biochemical analyzer; assay type: organism-based; conditions: in vivo, 30 h
Mus musculus [40] = assay: Anti-ferroptotic activity against acute iron overload in male C57BL/6 mouse model assessed as reduction in MDA level in liver at 10 mg/kg, ip pretreated with iron sulfate for 8 hrs followed by compound administered for 30 min; assay type: functional, organism-based
Mus musculus [41] = assay: Protection against acute iron overload in male C57BL/6 mouse model assessed as reduction in liver iron content at 10 mg/kg, ip pretreated with iron sulfate for 8 hrs followed by compound administered for 30 min by Perls Prussian blue staining; assay type: functional, organism-based
[42] = Toxicity in C57BL/6 mouse assessed as change in AST level in serum at 10 mg/kg, ip pretreated with iron sulfate for 8 hrs followed by compound administered for 30 min by automatic biochemical analyzer; assay type: organism-based; conditions: in vivo, 30 h
Mus musculus [43] = assay: Protection against acute iron overload in male C57BL/6 mouse model assessed as reduction in spleen iron content at 10 mg/kg, ip pretreated with iron sulfate for 8 hrs followed by compound administered for 30 min by Perls Prussian blue staining; assay type: functional, organism-based
Mus musculus [44] = assay: Anti-ferroptotic activity against acute iron overload in male C57BL/6 mouse model assessed as reduction in […] mRNA expression level in liver at 10 mg/kg, ip pretreated with iron sulfate for 8 hrs followed by compound administered for 30 min by qPCR analysis; assay type: functional, organism-based

## C/C=C/c1ccc(OC(C)=O)c(OC)c1
HT-1080 [1]
  Activity: Active
HT-1080 [2]
  Activity: inactive
HT-1080 [3]
  Activity: Active
HT-1080 [4]
  Activity: inactive
HT-1080 [5]
  Activity: Active
HT-1080 [6]
  Activity: Active
HT-1080 [7]
  Activity: Active
[8]
  Activity: inactive
HT-1080 [9]
  Activity: Active
HT-1080 [10]
  Activity: Active; Strong Protection
HT-1080 [11]
  Activity: Active
HT-1080 [12]
  Activity: inactive
HT-1080 [13]
  Activity: Active
HT-1080 [14]
  Activity: Active
HT-1080 [15]
  Activity: Active
HT-1080 [16]
  Activity: Active
HT-1080 [17]
  Activity: Active
HT-1080 [18]
  Activity: inactive

## C=CC(C)(C)c1cc(/C=C/C(=O)c2ccc(O)cc2)c(OC)cc1O
HT-1080 [1]
  Activity: Active
HT-1080 [2]
  Activity: inactive
HT-1080 [3]
  Activity: Active
HT-1080 [4]
  Activity: inactive
HT-1080 [5]
  Activity: Active
HT-1080 [6]
  Activity: Active
HT-1080 [7]
  Activity: Active
[8]
  Activity: inactive
HT-1080 [9]
  Activity: Active
HT-1080 [10]
  Activity: Active; Strong Protection
HT-1080 [11]
  Activity: Active
HT-1080 [19]
  Activity: Active
HT-1080 [12]
  Activity: inactive
HT-1080 [13]
  Activity: Active
HT-1080 [15]
  Activity: Active
HT-1080 [16]
  Activity: Active
HT-1080 [17]
  Activity: Active
HT-1080 [18]
  Activity: inactive

## COc1cc2c(cc1OC)[C@@H](Cc1ccc(O)c(Oc3cc4c(cc3OC)CCN(C)[C@@H]4Cc3ccc(O)cc3)c1)N(C)CC2
HT-1080 [20]
  Activity: inactive

## COc1ccc(C[C@@H]2c3cc(Oc4cc(C[C@H]5c6cc(OC)c(OC)cc6CCN5C)ccc4O)c(OC)cc3CCN2C)cc1
HT-1080 [20]
  Activity: inactive

## COc1ccc(C[C@@H]2c3cc(Oc4cc(C[C@@H]5c6cc(O)c(OC)cc6CCN5C)ccc4O)c(OC)cc3CCN2C)cc1 [ISOLIENSININE]
[21]
  Activity: Non-toxic
HT-1080 [22]
  Activity: Active
HT-1080 [1]
  Activity: Active
HT-1080 [23]
  Activity: Active
HT-1080 [2]
  Activity: Active
HT-1080 [3]
  Activity: Active
HT-1080 [4]
  Activity: Active
Mus musculus [24]
  Activity: Active
HT-1080 [25]
  Activity: inactive
HT-1080 [5]
  Activity: Active
HT-1080 [26]
  Activity: Active
HT-1080 [27]
  Activity: Active
HT-1080 [28]
  Activity: Active
HT-1080 [6]
  Activity: Active
HT-1080 [7]
  Activity: Active
HT-1080 [29]
  Activity: Active
HT-1080 [30]
  Activity: Active
[31]
  Activity: Non-toxic
[8]
  Activity: inactive
Mus musculus [32]
  Activity: Active
HT-1080 [33]
  Activity: Active
HT-1080 [9]
  Activity: Active
HT-1080 [34]
  Activity: inactive
HT-1080 [10]
  Activity: Active; Strong Protection
HT-1080 [11]
  Activity: Active
HT-1080 [35]
  Activity: Active
HT-1080 [19]
  Activity: Active
HT-1080 [36]
  Activity: inactive
HT-1080 [12]
  Activity: inactive
Mus musculus [37]
  Activity: Active
HT-1080 [38]
  Activity: Active
[39]
  Activity: Non-toxic
Mus musculus [40]
  Activity: Active
Mus musculus [41]
  Activity: Active
HT-1080 [13]
  Activity: Active
HT-1080 [15]
  Activity: Active
[42]
  Activity: Non-toxic
HT-1080 [16]
  Activity: Active
Mus musculus [43]
  Activity: Active
Mus musculus [44]
  Activity: Active
HT-1080 [17]
  Activity: Active
HT-1080 [18]
  Activity: Active
